Reference: patent US10383336B2, “Solutions employing herbicides and buffered amine oxides to kill weeds and related methods” (priority 2015, dated 2019)

Key:
[1] = test system: Grass (mixed types); experiment: Field trial of formulation components, kill rate 1 year after application (TABLE 2, Jun. 14, 2005, near Warren Pa.); type: in vivo; conditions: no herbicide; single component at % weight: Ethylene Glycol 0.07, 5 Mol Borax 0.044, Boric Acid 0.037, Barlox 12 0.305
Protocol: (§1) On Jun. 14, 2005, further trials were conducted near Warren Pa., USA to evaluate the contribution of certain formulation components to herbicide performance from the Jun. 2, 2004 Buffered Amine Oxide system. The same field trial methods were used. The control was distilled water.
(§2) The two herbicides which were tested were 2,4-D and Glyphosate. They were used in concentrations of 50:1 and 200:1. The vegetations tested were raspberry and grass. The components of the various elements employed in the buffered amine oxide formula are expressed in weight percent of the total buffered amine oxide formula. […] The first three components were tested at 200:1 strength with the Ethylene Glycol used alone, the Ethylene Glycol used in combination with 5 Mol Borax and Ethylene Glycol, 5 Mol Borax and Boric Acid used in combination. None of these killed the weeds.
(§3) Where a “0” appears in a block in TABLE 2, this means there were no kills. Where a block is blank, this means that no measurement was taken.

[2] = test system: Raspberry; experiment: as above; type: in vivo; conditions: no herbicide; single component at % weight: Ethylene Glycol 0.07, 5 Mol Borax 0.044, Boric Acid 0.037, Barlox 12 0.305
Protocol: as §1, §2, §3

OB(O)O [Boric Acid]
Kill Rate % 1 Year After Application, Grass [1]: 0% | Kill Rate % 1 Year After Application, Raspberry [2]: 0%

OCCO [Ethylene Glycol]
Kill Rate % 1 Year After Application, Grass [1]: 0% | Kill Rate % 1 Year After Application, Raspberry [2]: 0%

O.O.O.O.O.[Na+].[Na+].[O-]B1OB2OB([O-])OB(O1)O2 [5 Mol Borax]
Kill Rate % 1 Year After Application, Grass [1]: 0% | Kill Rate % 1 Year After Application, Raspberry [2]: 0%
